# Measurements: patent US20260109708A1, “COMPOUNDS AND COMPOSITIONS USEFUL AS DEGRADERS OF MK2 KINASE” (Celgene Corporation, priority 2023, published 2026)
# Target: T1, p38a activated, mitogen-activated protein kinase-activated protein kinase 2 (MAPKAP-K2 or MK2) enzyme (Homo sapiens, UniProt P49137)
# T1 construct: purchased Invitrogen PV3317
# Assay: MK2 OMNIA biochemical assay (AssayQuant continuous-read kinase assay)
# Settings: [MK-2]=0.05 nM, [ATP]=100 μM, [AQT0425]=10 μM
# Text: Example 56.2. Mitogen-Activated Protein Kinase-Activated Protein Kinase 2 AssayQuant Technologies® Assay for Compound Potency Assessment (MK2 OMNIA Biochemical Assay)
# The protocol below describes a continuous-read kinase assay optimized to measure potency of compounds against p38a activated, mitogen-activated protein kinase-activated protein kinase 2 (MAPKAP-K2 or MK2) enzyme.
# A 1.25× stock solution of MK2 (PV3317, from Invitrogen) and a 5× stock solution of ATP and Sox conjugated peptide substrate, AQT0425 (CSKS-AQT0425B, from AssayQuant Technologies), were prepared in 1× kinase reaction buffer consisting of 50 mM HEPES, pH 7.5, 0.01% Brij-35, 0.55 mM EGTA, 10 mM MgCl2 and 1 mM DTT.
# 10 μL of the ATP and substrate solution mix was added to a Coming (3574) 384-well, white, non-binding surface microtiter plate containing 0.5 μL of serially diluted test compounds prepared in DMSO. The reactions were started with the addition of 40 μL of the enzyme solution and monitored every 71 seconds for 240 min at kex 360/λem 485 in a Synergy H4 plate reader from BioTek at room temperature.
# The initial linear portions of the net progress curves were fit according to a linear equation to yield the slope and percentage of inhibition (% inhibition) at each compound concentration. The net progress curves obtained during the entirety of reactions were also fit according to an ascending single-exponential equation (Eq. 1) to yield Vobs values at each compound concentration. Plots of % Inhibition versus degrader concentrations were fit according to a dose-response equation (Eq. 2) to generate IC50 and Hill slope values while plots of Vobs versus degrader concentration were fit according to Equation 3 (Eq. 3) to generate apparent Kinact values using the GraphPad PRISM software.
# where F is the fluorescence intensity from the plate reader, V0 is a constant reflecting the relationship between the instrument readout and product concentration, t is time, e is Euler's number, and Vobs is the observed inactivation rate constant.
# where % Inhibition is percentage of inhibition, IC50 is half maximal inhibitory concentration, [I] is the degraders concentration, and n is the Hill slope.
# where kobs is the observed inactivation rate constant, Kinact is the apparent inactivation rate constant, K1 is the apparent inhibition constant, and [I] is the degrader concentration.
# T1 sequence (P49137 whole entry): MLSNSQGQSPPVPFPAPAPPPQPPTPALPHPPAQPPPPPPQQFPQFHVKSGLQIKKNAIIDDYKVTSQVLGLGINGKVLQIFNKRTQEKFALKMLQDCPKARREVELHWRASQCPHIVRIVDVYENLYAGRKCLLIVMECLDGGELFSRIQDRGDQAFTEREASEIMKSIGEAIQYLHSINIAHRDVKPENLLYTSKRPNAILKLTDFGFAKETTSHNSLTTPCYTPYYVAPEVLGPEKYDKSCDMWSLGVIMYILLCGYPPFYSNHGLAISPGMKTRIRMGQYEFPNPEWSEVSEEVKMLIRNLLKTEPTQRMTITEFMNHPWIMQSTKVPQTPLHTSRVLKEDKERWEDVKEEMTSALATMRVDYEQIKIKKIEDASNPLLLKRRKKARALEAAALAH
row,SMILES,IC50 [nM]
1,"C[C@@H]1CNc2c(sc3ccc4nc(-c5ccc(N6CCC(CN7CCN(c8ccc(C9CCC(=O)NC9=O)cc8)CC7)CC6)cc5)ccc4c23)C(=O)N1 (stereo partly drawn) [Ex 38, 3-(4-(4-((1-(4-((R)-10-Methyl-8-oxo-9,10,11,12-tetrahydro-8H-[1,4]diazepino[5′,6′:4,5]thieno[3,2-f]quinolin-3-yl)phenyl)piperidin-4-yl)methyl)piperazin-1-yl)phenyl)piperidine-2,6-dione]",151 to 500
2,"C[C@@H]1CNc2c(sc3ccc4nc(-c5ccc(N6CCC(CCN7CCN(c8ccc(C9CCC(=O)NC9=O)cc8)CC7)CC6)cc5)ccc4c23)C(=O)N1 (stereo partly drawn) [Ex 39, 3-(4-(4-(2-(1-(4-((R)-10-methyl-8-oxo-9,10,11,12-tetrahydro-8H-[1,4]diazepino[5′,6′:4,5]thieno[3,2-f]quinolin-3-yl)phenyl)piperidin-4-yl)ethyl)piperazin-1-yl)phenyl)piperidine-2,6-dione]",151 to 500
3,"C[C@@H]1CNc2c(sc3ccc4nc(-c5ccc(N6CC(CN7CCN(c8ccc(C9CCC(=O)NC9=O)cc8)CC7)C6)cc5)ccc4c23)C(=O)N1 (stereo partly drawn) [Ex 41, 3-(4-(4-((1-(4-((R)-10-Methyl-8-oxo-9,10,11,12-tetrahydro-8H-[1,4]diazepino[5′,6′:4,5]thieno[3,2-f]quinolin-3-yl)phenyl)azetidin-3-yl)methyl)piperazin-1-yl)phenyl)piperidine-2,6-dione]",< 150
4,"C[C@@H]1CNc2c(sc3ccc4nc(-c5ccc(N6CC(CCN7CCN(c8ccc(C9CCC(=O)NC9=O)cc8)CC7)C6)cc5)ccc4c23)C(=O)N1 (stereo partly drawn) [Ex 42, 3-(4-(4-(2-(1-(4-((R)-10-Methyl-8-oxo-9,10,11,12-tetrahydro-8H-[1,4]diazepino[5′,6′:4,5]thieno[3,2-f]quinolin-3-yl)phenyl)azetidin-3-yl)ethyl)piperazin-1-yl)phenyl)piperidine-2,6-dione]",< 150
5,"C[C@@H]1CNc2c(sc3ccc4nc(-c5cnn(C6CCN(CCN7CCN(c8ccc9c(C%10CCC(=O)NC%10=O)nn(C)c9c8)CC7)CC6)c5)ccc4c23)C(=O)N1 (stereo partly drawn) [Ex 44, 3-(1-Methyl-6-(4-(2-(4-(4-((R)-10-methyl-8-oxo-9,10,11,12-tetrahydro-8H-[1,4]diazepino[5′,6′:4,5]thieno[3,2-f]quinolin-3-yl)-1H-pyrazol-1-yl)piperidin-1-yl)ethyl)piperazin-1-yl)-1H-indazol-3-yl)piperidine-2,6-dione]",< 150
6,"C[C@@H]1CNc2c(sc3ccc4nc(-c5cn(C6CCN(CCN7CCN(c8ccc9c(C%10CCC(=O)NC%10=O)nn(C)c9c8)CC7)CC6)nn5)ccc4c23)C(=O)N1 (stereo partly drawn) [Ex 50, 3-(1-Methyl-6-(4-(2-(4-(4-((R)-10-methyl-8-oxo-9,10,11,12-tetrahydro-8H-[1,4]diazepino[5′,6′:4,5]thieno[3,2-f]quinolin-3-yl)-1H-1,2,3-triazol-1-yl)piperidin-1-yl)ethyl)piperazin-1-yl)-1H-indazol-3-yl)piperidine-2,6-dione]",< 150
7,"C[C@@H]1CNc2c(sc3ccc4nc(-c5cnn(C6CN(CCN7CCN(c8ccc(C9CCC(=O)NC9=O)cc8)CC7)C6)c5)ccc4c23)C(=O)N1 (stereo partly drawn) [Ex 51, 3-(4-(4-(2-(3-(4-((R)-10-Methyl-8-oxo-9,10,11,12-tetrahydro-8H-[1,4]diazepino[5′,6′:4,5]thieno[3,2-f]quinolin-3-yl)-1H-pyrazol-1-yl)azetidin-1-yl)ethyl)piperazin-1-yl)phenyl)piperidine-2,6-dione]",< 150
8,"C[C@@H]1CNc2c(sc3ccc4nc(-c5cnn(C6CN(CCN7CCN(c8ccc9c(C%10CCC(=O)NC%10=O)nn(C)c9c8)CC7)C6)c5)ccc4c23)C(=O)N1 (stereo partly drawn) [Ex 52, 3-(1-Methyl-6-(4-(2-(3-(4-((R)-10-methyl-8-oxo-9,10,11,12-tetrahydro-8H-[1,4]diazepino[5′,6′:4,5]thieno[3,2-f]quinolin-3-yl)-1H-pyrazol-1-yl)azetidin-1-yl)ethyl)piperazin-1-yl)-1H-indazol-3-yl)piperidine-2,6-dione]",< 150

# The next lines start with the values.
row,IC50 [nM],SMILES
1,151 to 500,"C[C@@H]1CNc2c(sc3ccc4nc(-c5cnc(C6CCN(CCN7CCN(c8ccc(C9CCC(=O)NC9=O)cc8)CC7)CC6)nc5)ccc4c23)C(=O)N1 (stereo partly drawn) [Ex 36, 3-(4-(4-(2-(4-(5-((R)-10-Methyl-8-oxo-9,10,11,12-tetrahydro-8H-[1,4]diazepino[5′,6′:4,5]thieno[3,2-f]quinolin-3-yl)pyrimidin-2-yl)piperidin-1-yl)ethyl)piperazin-1-yl)phenyl)piperidine-2,6-dione]"
2,< 150,"C[C@@H]1CNc2c(sc3ccc4nc(-c5ccc(C6CCN(CCN7CCN(c8ccc(C9CCC(=O)NC9=O)cc8)CC7)CC6)nn5)ccc4c23)C(=O)N1 (stereo partly drawn) [Ex 37, 3-(4-(4-(2-(4-(6-((R)-10-Methyl-8-oxo-9,10,11,12-tetrahydro-8H-[1,4]diazepino[5′,6′:4,5]thieno[3,2-f]quinolin-3-yl)pyridazin-3-yl)piperidin-1-yl)ethyl)piperazin-1-yl)phenyl)piperidine-2,6-dione]"
3,151 to 500,"C[C@@H]1CNc2c(sc3ccc4nc(-c5ccc(N6CCC(CCN7CCC(c8ccc(C9CCC(=O)NC9=O)cc8)CC7)CC6)cc5)ccc4c23)C(=O)N1 (stereo partly drawn) [Ex 40, 3-(4-(1-(2-(1-(4-((R)-10-Methyl-8-oxo-9,10,11,12-tetrahydro-8H-[1,4]diazepino[5′,6′:4,5]thieno[3,2-f]quinolin-3-yl)phenyl)piperidin-4-yl)ethyl)piperidin-4-yl)phenyl)piperidine-2,6-dione]"
4,< 150,"C[C@@H]1CNc2c(sc3ccc4nc(-c5cnn(C6CCN(CCN7CCN(c8ccc(C9CCC(=O)NC9=O)cc8)CC7)CC6)c5)ccc4c23)C(=O)N1 (stereo partly drawn) [Ex 43, 3-(4-(4-(2-(4-(4-((R)-10-Methyl-8-oxo-9,10,11,12-tetrahydro-8H-[1,4]diazepino[5′,6′:4,5]thieno[3,2-f]quinolin-3-yl)-1H-pyrazol-1-yl)piperidin-1-yl)ethyl)piperazin-1-yl)phenyl)piperidine-2,6-dione]"
5,< 150,"C[C@@H]1CNc2c(sc3ccc4nc(-n5cc(C6CCN(CCN7CCN(c8ccc(C9CCC(=O)NC9=O)cc8)CC7)CC6)nn5)ccc4c23)C(=O)N1 (stereo partly drawn) [Ex 45, 3-(4-(4-(2-(4-(1-((R)-10-Methyl-8-oxo-9,10,11,12-tetrahydro-8H-[1,4]diazepino[5′,6′:4,5]thieno[3,2-f]quinolin-3-yl)-1H-1,2,3-triazol-4-yl)piperidin-1-yl)ethyl)piperazin-1-yl)phenyl)piperidine-2,6-dione]"
6,< 150,"C[C@@H]1CNc2c(sc3ccc4nc(-n5cc(C6CCN(CCN7CCN(c8ccc9c(C%10CCC(=O)NC%10=O)nn(C)c9c8)CC7)CC6)nn5)ccc4c23)C(=O)N1 (stereo partly drawn) [Ex 46, 3-(1-Methyl-6-(4-(2-(4-(1-((R)-10-methyl-8-oxo-9,10,11,12-tetrahydro-8H-[1,4]diazepino[5′,6′:4,5]thieno[3,2-f]quinolin-3-yl)-1H-1,2,3-triazol-4-yl)piperidin-1-yl)ethyl)piperazin-1-yl)-1H-indazol-3-yl)piperidine-2,6-dione]"
7,< 150,"C[C@@H]1CNc2c(sc3ccc4nc(-n5cc(C6CCN(CCN7CCC(c8ccc(C9CCC(=O)NC9=O)cc8)CC7)CC6)nn5)ccc4c23)C(=O)N1 (stereo partly drawn) [Ex 47, 3-(4-(1-(2-(4-(1-((R)-10-Methyl-8-oxo-9,10,11,12-tetrahydro-8H-[1,4]diazepino[5′,6′:4,5]thieno[3,2-f]quinolin-3-yl)-1H-1,2,3-triazol-4-yl)piperidin-1-yl)ethyl)piperidin-4-yl)phenyl)piperidine-2,6-dione]"
8,< 150,"C[C@@H]1CNc2c(sc3ccc4nc(-c5cn(C6CCN(CCN7CCC(c8ccc(C9CCC(=O)NC9=O)cc8)CC7)CC6)nn5)ccc4c23)C(=O)N1 (stereo partly drawn) [Ex 48, 3-(4-(1-(2-(4-(4-((R)-10-Methyl-8-oxo-9,10,11,12-tetrahydro-8H-[1,4]diazepino[5′,6′:4,5]thieno[3,2-f]quinolin-3-yl)-1H-1,2,3-triazol-1-yl)piperidin-1-yl)ethyl)piperidin-4-yl)phenyl)piperidine-2,6-dione]"
9,< 150,"C[C@@H]1CNc2c(sc3ccc4nc(-c5cn(C6CCN(CCN7CCN(c8ccc(C9CCC(=O)NC9=O)cc8)CC7)CC6)nn5)ccc4c23)C(=O)N1 (stereo partly drawn) [Ex 49, 3-(4-(4-(2-(4-(4-((R)-10-Methyl-8-oxo-9,10,11,12-tetrahydro-8H-[1,4]diazepino[5′,6′:4,5]thieno[3,2-f]quinolin-3-yl)-1H-1,2,3-triazol-1-yl)piperidin-1-yl)ethyl)piperazin-1-yl)phenyl)piperidine-2,6-dione]"
